Assay [1] addresses Indoleamine 2,3-dioxygenase 1 (Homo sapiens, UniProt P14902). As to the kind of experiment: Inhibition of recombinant human IDO expressed in Escherichia coli incubated for 1 hr measured by fluorescence assay.
The target of assay [2] is Tryptophan 2,3-dioxygenase (Homo sapiens, UniProt P48775). As to the kind of experiment: Inhibition of recombinant human TDO expressed in Escherichia coli incubated for 1 hr measured by absorbance assay.
The target in a further assay is T1, Catalase (Homo sapiens, UniProt P04040).
T1 sequence (P04040 whole entry): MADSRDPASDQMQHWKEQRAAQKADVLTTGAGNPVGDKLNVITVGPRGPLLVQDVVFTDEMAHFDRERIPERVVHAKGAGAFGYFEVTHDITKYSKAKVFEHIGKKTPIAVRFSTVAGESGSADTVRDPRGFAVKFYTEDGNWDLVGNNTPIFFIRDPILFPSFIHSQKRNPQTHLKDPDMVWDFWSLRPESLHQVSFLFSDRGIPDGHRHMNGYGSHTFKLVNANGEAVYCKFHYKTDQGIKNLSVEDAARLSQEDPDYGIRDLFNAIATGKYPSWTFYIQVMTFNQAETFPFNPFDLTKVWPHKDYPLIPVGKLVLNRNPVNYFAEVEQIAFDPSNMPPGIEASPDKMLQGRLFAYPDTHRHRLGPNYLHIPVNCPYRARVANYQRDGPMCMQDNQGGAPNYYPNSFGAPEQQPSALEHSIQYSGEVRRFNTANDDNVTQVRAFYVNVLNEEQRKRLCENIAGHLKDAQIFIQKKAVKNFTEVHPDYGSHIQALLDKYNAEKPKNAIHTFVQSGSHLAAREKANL
Nature of the assay: Inhibition of catalase (unknown origin).

For assay [3], the target named is T2, Receptor-type tyrosine-protein kinase FLT3 (Homo sapiens, UniProt P36888).
T2 sequence (P36888 whole entry): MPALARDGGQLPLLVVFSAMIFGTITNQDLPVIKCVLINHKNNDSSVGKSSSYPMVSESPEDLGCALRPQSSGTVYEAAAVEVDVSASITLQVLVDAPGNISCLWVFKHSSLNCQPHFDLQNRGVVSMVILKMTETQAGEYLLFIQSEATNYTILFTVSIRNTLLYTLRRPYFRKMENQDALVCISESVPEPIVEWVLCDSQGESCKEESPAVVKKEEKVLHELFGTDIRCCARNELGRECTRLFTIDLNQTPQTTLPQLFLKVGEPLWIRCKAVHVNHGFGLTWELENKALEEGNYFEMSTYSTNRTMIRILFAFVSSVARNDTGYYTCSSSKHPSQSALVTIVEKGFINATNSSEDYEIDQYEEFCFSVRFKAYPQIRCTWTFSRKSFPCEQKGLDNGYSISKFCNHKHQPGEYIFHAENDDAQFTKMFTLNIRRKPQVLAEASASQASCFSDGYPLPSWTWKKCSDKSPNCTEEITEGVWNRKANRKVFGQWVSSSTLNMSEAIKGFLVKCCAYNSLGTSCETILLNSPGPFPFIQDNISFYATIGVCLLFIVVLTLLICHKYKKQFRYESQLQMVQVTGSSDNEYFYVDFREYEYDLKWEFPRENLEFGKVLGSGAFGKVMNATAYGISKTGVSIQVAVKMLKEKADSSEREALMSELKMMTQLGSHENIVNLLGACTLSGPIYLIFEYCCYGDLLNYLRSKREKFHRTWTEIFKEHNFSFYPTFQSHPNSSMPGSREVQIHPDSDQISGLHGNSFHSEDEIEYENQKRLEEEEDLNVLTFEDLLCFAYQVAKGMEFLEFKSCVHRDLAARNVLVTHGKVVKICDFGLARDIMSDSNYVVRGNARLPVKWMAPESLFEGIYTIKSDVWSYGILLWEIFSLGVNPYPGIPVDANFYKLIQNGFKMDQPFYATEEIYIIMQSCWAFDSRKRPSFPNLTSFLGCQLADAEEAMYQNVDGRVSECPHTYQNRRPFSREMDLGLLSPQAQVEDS
As to the kind of experiment: Inhibition of FLT3 (unknown origin) expressed in Sf9 insect cells for 4 hrs by Kinase-Glo assay. Background: Kinase-Glo reads ATP consumption through a luciferase reaction.

The target in a further assay is T3, Aurora kinase A (Homo sapiens, UniProt O14965).
T3 sequence (O14965 whole entry): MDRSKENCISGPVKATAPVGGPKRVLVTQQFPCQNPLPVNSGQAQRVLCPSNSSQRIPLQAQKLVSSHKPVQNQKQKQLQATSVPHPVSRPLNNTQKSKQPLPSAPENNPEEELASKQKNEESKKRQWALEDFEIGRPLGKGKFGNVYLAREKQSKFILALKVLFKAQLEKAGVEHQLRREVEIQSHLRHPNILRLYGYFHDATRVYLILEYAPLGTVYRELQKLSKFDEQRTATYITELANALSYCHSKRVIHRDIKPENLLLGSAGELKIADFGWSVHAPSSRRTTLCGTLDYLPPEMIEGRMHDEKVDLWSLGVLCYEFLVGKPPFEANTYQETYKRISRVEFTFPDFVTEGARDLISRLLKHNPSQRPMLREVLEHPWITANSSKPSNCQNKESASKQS
Nature of the assay: Inhibition of Aurora A (unknown origin).

Assay [4] can be described thus: Redox cycling activity of the compound assessed as H2O2 production incubated for 15 mins by HRP-PR assay in presence of 0.8 mM DTT.
A short description of assay [5]: Inhibition of Dengue virus type 2 NS2B-NS3 protease.
The target of the next assay is Mu-type opioid receptor (Homo sapiens, UniProt P35372). As to the kind of experiment: Inhibition of recombinant mu-opioid receptor (unknown origin) expressed in CHO cells for 60 mins. It is filed as cell-based.
Mu-type opioid receptor, sequence (P35372 whole entry): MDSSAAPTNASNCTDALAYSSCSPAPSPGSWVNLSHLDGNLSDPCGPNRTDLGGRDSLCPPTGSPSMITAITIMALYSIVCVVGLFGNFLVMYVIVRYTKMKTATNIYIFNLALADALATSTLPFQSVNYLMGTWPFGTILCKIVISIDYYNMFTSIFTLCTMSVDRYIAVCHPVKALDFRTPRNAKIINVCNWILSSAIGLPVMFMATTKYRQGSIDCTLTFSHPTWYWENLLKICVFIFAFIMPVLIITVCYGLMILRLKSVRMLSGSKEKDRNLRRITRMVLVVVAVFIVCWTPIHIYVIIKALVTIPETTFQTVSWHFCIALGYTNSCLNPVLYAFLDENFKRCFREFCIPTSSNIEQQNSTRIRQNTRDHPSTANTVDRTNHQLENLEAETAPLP
Assay [6] has as its target T4, Tyrosine-protein phosphatase non-receptor type 1 (Homo sapiens, UniProt P18031).
T4 sequence (P18031 whole entry): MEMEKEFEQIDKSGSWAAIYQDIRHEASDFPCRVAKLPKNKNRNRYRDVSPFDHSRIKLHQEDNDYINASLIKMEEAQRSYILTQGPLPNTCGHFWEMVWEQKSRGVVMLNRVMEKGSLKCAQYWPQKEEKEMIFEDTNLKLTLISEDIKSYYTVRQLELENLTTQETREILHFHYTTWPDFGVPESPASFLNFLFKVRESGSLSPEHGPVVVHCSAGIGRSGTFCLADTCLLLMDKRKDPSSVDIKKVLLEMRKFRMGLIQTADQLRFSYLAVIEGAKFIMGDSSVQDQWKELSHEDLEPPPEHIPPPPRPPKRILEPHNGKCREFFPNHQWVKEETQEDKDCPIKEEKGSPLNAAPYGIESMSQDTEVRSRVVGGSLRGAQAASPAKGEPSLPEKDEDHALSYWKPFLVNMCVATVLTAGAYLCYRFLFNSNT
Nature of the assay: Inhibition of human PTP1B preincubated with protein for 15 mins followed by DiFMUP addition for 1 hr measured by fluorescence analysis.

The target in assay [7] is Epidermal growth factor receptor (Homo sapiens, UniProt P00533). Nature of the assay: Inhibition of human EGFR incubated for 2 hrs by Kinase-Glo luminescent kinase assay.
Epidermal growth factor receptor, sequence (P00533 whole entry): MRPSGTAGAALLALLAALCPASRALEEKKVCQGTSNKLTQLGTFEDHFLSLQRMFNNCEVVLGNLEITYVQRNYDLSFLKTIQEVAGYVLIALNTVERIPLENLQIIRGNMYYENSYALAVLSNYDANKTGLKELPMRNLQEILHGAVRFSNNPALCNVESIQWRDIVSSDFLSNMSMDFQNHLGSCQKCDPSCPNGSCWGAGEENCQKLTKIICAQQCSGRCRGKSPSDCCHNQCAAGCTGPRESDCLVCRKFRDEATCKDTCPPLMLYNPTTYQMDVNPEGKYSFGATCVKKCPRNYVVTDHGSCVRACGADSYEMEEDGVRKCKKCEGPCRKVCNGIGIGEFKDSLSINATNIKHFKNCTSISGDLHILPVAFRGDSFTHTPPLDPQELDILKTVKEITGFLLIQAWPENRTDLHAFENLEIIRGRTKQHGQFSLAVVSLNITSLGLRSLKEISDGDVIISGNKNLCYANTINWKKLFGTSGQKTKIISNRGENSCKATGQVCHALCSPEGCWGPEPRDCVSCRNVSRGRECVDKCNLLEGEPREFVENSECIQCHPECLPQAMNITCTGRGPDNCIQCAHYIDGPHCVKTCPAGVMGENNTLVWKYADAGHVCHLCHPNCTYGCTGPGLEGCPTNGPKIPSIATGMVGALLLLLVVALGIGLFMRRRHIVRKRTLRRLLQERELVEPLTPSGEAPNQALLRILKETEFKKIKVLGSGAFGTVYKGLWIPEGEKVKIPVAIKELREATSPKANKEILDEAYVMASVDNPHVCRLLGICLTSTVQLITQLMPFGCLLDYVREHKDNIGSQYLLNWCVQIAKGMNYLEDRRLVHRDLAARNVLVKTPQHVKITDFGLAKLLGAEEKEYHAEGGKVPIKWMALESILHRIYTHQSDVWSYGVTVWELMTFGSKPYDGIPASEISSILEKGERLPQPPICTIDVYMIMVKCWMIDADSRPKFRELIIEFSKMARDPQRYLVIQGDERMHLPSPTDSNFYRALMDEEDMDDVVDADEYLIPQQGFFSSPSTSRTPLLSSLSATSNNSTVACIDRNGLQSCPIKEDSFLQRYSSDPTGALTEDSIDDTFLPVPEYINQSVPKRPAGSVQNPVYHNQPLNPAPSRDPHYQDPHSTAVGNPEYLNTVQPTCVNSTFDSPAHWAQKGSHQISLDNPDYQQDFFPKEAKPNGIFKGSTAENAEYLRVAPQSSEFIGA
Assay [8] can be described thus: Inhibition of human muscle mitochondrial complex 1 by spectrophotometric assay.
In assay [9] the target is C-X-C chemokine receptor type 4 (Homo sapiens, UniProt P61073). Nature of the assay: Displacement of 125I-SDF-1 from human CXCR4 expressed in HEK293 cells incubated for 1.5 hrs by Topcount analysis. Format: cell-based. In general terms: Displacement assays read how much labelled ligand stays bound in the presence of the test substance.
C-X-C chemokine receptor type 4, sequence (P61073 whole entry): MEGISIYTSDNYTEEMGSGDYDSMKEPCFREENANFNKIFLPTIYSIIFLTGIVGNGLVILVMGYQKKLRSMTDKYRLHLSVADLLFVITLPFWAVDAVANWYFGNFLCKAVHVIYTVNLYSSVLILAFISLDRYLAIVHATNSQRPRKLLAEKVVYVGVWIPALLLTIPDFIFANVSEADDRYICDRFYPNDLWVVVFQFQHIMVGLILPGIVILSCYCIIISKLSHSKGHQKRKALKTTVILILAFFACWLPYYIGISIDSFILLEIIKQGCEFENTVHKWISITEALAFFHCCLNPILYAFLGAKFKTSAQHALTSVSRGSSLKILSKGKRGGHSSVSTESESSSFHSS

Experimental findings from ChEMBL document CHEMBL3627649, “Identification of Substituted Naphthotriazolediones as Novel Tryptophan 2,3-Dioxygenase (TDO) Inhibitors through Structure-Based Virtual Screening” (J Med Chem, 2015) are described below.

The structures appear in SMILES notation.

Indoleamine 2,3-dioxygenase 1, sequence (P14902 whole entry): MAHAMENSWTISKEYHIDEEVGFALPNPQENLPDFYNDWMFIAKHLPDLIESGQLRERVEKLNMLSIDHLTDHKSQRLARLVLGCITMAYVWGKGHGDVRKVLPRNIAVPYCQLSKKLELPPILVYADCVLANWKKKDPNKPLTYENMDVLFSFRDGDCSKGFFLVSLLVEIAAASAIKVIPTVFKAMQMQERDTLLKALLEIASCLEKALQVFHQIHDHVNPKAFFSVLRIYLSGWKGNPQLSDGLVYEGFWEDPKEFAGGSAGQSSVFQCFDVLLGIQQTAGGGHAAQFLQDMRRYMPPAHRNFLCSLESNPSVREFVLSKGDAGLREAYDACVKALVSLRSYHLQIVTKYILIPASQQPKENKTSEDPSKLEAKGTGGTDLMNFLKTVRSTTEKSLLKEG
Tryptophan 2,3-dioxygenase, sequence (P48775 whole entry): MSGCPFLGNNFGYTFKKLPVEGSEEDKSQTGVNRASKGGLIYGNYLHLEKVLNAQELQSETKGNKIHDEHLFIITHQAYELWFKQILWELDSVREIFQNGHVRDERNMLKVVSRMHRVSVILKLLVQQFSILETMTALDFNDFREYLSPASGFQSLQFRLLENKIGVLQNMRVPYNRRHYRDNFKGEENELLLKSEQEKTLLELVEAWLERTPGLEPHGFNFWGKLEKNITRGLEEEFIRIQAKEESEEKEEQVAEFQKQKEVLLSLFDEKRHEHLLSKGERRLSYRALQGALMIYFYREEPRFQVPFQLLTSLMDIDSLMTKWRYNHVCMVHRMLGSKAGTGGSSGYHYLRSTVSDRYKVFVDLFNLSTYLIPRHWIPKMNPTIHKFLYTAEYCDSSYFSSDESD

The IC50 is the point on the concentration scale where inhibition reaches its midpoint. On to `O=C(O)c1cccc(Cn2nnc3c2C(=O)c2ccccc2C3=O)c1`, for which the IC50 in assay [1] amounted to 1240 nM; in assay [2] it was 167 nM.
Take `CC(=O)N1CCN(C(=O)c2ccc(Cn3nnc4c3C(=O)c3ccccc3C4=O)cc2)CC1`: the figures for the IC50 in assay [1] and in assay [2] were 1100 nM and 176 nM, respectively.
For `O=C1c2ccccc2C(=O)c2c1nnn2Cc1ccc(F)cc1`, the IC50 worked out at 2590 nM in [1] and 7380 nM in assay [2].
Taken in the same sequence, the figures for `O=C(O)c1ccc(Cn2nnc3c2C(=O)c2ccccc2C3=O)cc1` were 2320 nM and 312 nM.
Taken in the same sequence, the figures for `COC1CCN(C(=O)c2ccc(Cn3nnc4c3C(=O)c3ccccc3C4=O)cc2)CC1` were 1590 nM and 209 nM.
What is called AC50 is the concentration at which the activity in the assay is half-maximal. Turning to `CN1CCN(C(=O)c2cccc(Cn3nnc4c3C(=O)c3ccccc3C4=O)c2)CC1`, the IC50 in assay [1] was 640 nM; on Catalase, more than 10 µM; in assay [3], more than 10 µM; at Aurora kinase A, more than 10 µM; in assay [5], more than 10 µM; on Mu-type opioid receptor, more than 10 µM. The 50% inhibitory concentration (IC50) in assay [6], in assay [7], in assay [8] and in assay [9] was more than 10 µM each time. In addition, in [4], the AC50 was more than 50 µM.
Take `O=C1c2ccccc2C(=O)c2c1nnn2Cc1ccc(C(=O)N2CCOCC2)cc1`: the figures for the IC50 in assay [1] and in assay [2] were 982 nM and 116 nM, respectively.
As for `CC(=O)N1CCN(C(=O)c2cccc(Cn3nnc4c3C(=O)c3ccccc3C4=O)c2)CC1`, the figures for the IC50 in assay [1] and in assay [2] were 602 nM and 59 nM, respectively.
Take `CCN(CC)C(=O)c1cccc(Cn2nnc3c2C(=O)c2ccccc2C3=O)c1`: the IC50 in assay [1] is 977 nM; in assay [2], 90 nM.
Consider `Cc1ccccc1Cn1nnc2c1C(=O)c1ccccc1C2=O`, for which the IC50 in assay [1] is 809 nM; at Catalase it was more than 10 µM; in assay [3], more than 10 µM; against Aurora kinase A, more than 10 µM; in assay [5], more than 10 µM; on Mu-type opioid receptor, more than 10 µM. Besides, the IC50 in assay [7] is more than 10 µM; in assay [8], more than 10 µM; in assay [2], 561 nM; in [9], more than 10 µM.
Turning to `CCN(CC)C(=O)c1ccc(Cn2nnc3c2C(=O)c2ccccc2C3=O)cc1`, the IC50 in [1] came to 1930 nM; in [2] it was 181 nM.
Take `CN1CCN(C(=O)c2ccc(Cn3nnc4c3C(=O)c3ccccc3C4=O)cc2)CC1`: the IC50 was 2070 nM in assay [1] and 108 nM in assay [2].
Take `O=C1c2ccccc2C(=O)c2c1nnn2Cc1cccc(Br)c1`: the values for the IC50 in assay [1] and in [2] were 3160 nM and 768 nM, respectively.
For `CCN(CC)C(=O)Cc1ccc(Cn2nnc3c2C(=O)c2ccccc2C3=O)cc1`, the figures for the IC50 in [1] and in assay [2] were 922 nM and 145 nM, respectively.
Regarding `O=C1c2ccccc2C(=O)c2c1nnn2Cc1cccc(C(=O)N2CCOCC2)c1`, the IC50 in [1] was determined as 936 nM; in [2] it was 48 nM.
`O=C1c2ccccc2C(=O)c2c1nnn2Cc1ccc(Br)cc1`: the IC50 was more than 10000 nM in assay [1] and 1590 nM in assay [2].
On to `Cc1cccc(Cn2nnc3c2C(=O)c2ccccc2C3=O)c1`, for which the results for the IC50 in assay [1] and in assay [2] were 4610 nM and 1750 nM, respectively.
For `O=C1c2ccccc2C(=O)c2c1nnn2Cc1cccc(Cl)c1`, the figures for the IC50 in [1], in assay [6] and in assay [2] were 767 nM, more than 10 µM and 711 nM, respectively. The AC50 in assay [4] is more than 50 µM.
Regarding `O=C1c2ccccc2C(=O)c2c1nnn2Cc1ccc(Cl)cc1`, the IC50 in assay [1] was more than 10000 nM; in [2] it was 6460 nM.
Regarding `Cc1ccc(Cn2nnc3c2C(=O)c2ccccc2C3=O)cc1`, the IC50 was determined as 1770 nM in [1] and 1090 nM in assay [2].
